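Assay format: 96-well plates, 48-hour exposure. GI50 marks 50% less growth. TGI is the concentration that stops growth completely.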

Assay in all cases: NCI-60 cell line screen, 48 h
In assay [1] the test system is MDA-MB-231 breast.
Assay [2] concerns CCRF-CEM leukemia.
Assay [3] has as its system SF-268 CNS.
In assay [4] the test system is SF-295 CNS.
Assay [5] deals with SK-MEL-28 melanoma.
For assay [6], the system named is UACC-62 melanoma.
The test system of assay [7] is PC-3 prostate.
Assay [8] relates to MOLT-4 leukemia.
For assay [9], the system named is ACHN renal.
Assay [10] has as its system NCI-H226 lung.

On to `COc1ccc(C(=O)c2cc(OC)c(OC)c(OC)c2)cc1O`, for which the GI50 in assay [1] is 0.0559 µM; in assay [2] it was 0.0308 µM; in [3] it was 0.0613 µM; in [4] it was 0.367 µM; in assay [5], > 80.8 µM; in [6] it was 1.1 µM. The GI50 was 0.0285 µM in [7], 0.0367 µM in [8], 0.0433 µM in [9] and 4.76 µM in assay [10]. In addition, the TGI in assay [1], in assay [2], in [3], in [4], in assay [5] and in [6] was > 100 µM in each case. In addition, the TGI in assay [7], in assay [8], in assay [9] and in assay [10] was > 100 µM in each case.

`CC(=O)Oc1cccc2c1C(=O)C(Br)(Br)CCC2`: the TGI worked out at 8.41 µM in [1]; 9.91 µM in assay [2]; 42.7 µM in [3]; 31.3 µM in [4]; 25.7 µM in assay [5]; 20.9 µM in assay [6]. For the same compound, the TGI in assay [7] is 16 µM; in assay [8] it was 13.8 µM; in [9] it was 12.8 µM; in [10], 20.1 µM.

Take `COc1ccc(C2=C(c3cn(C)c4ccccc34)C(=O)NC2=O)cc1OC`: the GI50 is 10.7 µM in assay [1]; 6.38 µM in assay [2]; 8.85 µM in assay [3]; 10.4 µM in assay [4]; 16.8 µM in [5]; 8.12 µM in assay [6]. Further, the GI50 was 7.29 µM in [7], 8.84 µM in assay [8], 6.35 µM in assay [9] and 10.8 µM in assay [10]. Besides, the TGI in assay [1], in assay [2], in [3], in assay [4], in assay [5] and in assay [6] was > 25 µM each time. Also, the TGI in assay [7], in assay [8], in assay [9] and in assay [10] was > 25 µM in each case.

`O=c1[nH]nc2c3c(cccc13)NC(CN1Cc3ccccc3C1)=N2`: the GI50 was 5.5 µM in assay [1]; 4.42 µM in [2]; 7.4 µM in assay [3]; 5.61 µM in [4]; 15.3 µM in [5]; 4.44 µM in assay [6]. Besides, the GI50 in [7] was 7.23 µM; in [8], 4.56 µM; in [9] it was 4.92 µM; in assay [10], 30.3 µM. Further, the TGI in assay [1], in [2], in assay [3], in assay [4], in assay [5] and in assay [6] was > 100 µM each time. In addition, the TGI in assay [7], in assay [8], in [9] and in assay [10] was > 100 µM in each case.

With `CCS(=O)(=O)c1ccc(OC)c(Nc2nccc(N(C)c3ccc4c(C)[nH]nc4c3)n2)c1`, the GI50 in [1] is 3.66 µM; in assay [2] it was 8.15 µM; in assay [3], 4.74 µM; in assay [4] it was 4.17 µM; in assay [5], 6.8 µM; in assay [6], 6.79 µM. Also, the GI50 in assay [7] was 5.46 µM; in assay [8], 6.71 µM; in assay [9] it was 5.95 µM; in [10], 1.85 µM. The TGI in assay [1] is 9.45 µM; in assay [2] it was > 25 µM; in [3], > 17.6 µM; in assay [4], 10.4 µM; in assay [5] it was > 25 µM; in assay [6], 24.5 µM. Besides, the TGI in [7] is 22.1 µM; in assay [8] it was > 25 µM; in [9] it was > 24.1 µM; in assay [10], > 21.1 µM.

For the compound `N#CSCC1CC(O)(c2ccccc2)C(c2ccccc2)C(c2ccc(F)cc2)O1` (stereo not given), the GI50 in assay [1] is 2.53 µM; in [2], 3.09 µM; in assay [3], 2.57 µM; in [4], 1.88 µM; in [5], 2.93 µM; in assay [6], 1.9 µM. The GI50 was 2.14 µM in assay [7], 0.676 µM in assay [8], 3.42 µM in assay [9] and 4.89 µM in assay [10]. Besides, the TGI is 8.62 µM in assay [1]; > 100 µM in assay [2]; 7.25 µM in [3]; 7.08 µM in assay [4]; 8.79 µM in assay [5]; 5.58 µM in assay [6]. Further, the TGI was found to be 11.3 µM in assay [7], 4.51 µM in [8], 11.4 µM in [9] and 16.1 µM in assay [10].

Source of the values: PubChem BioAssay (NCI).
